# Measurements reported in patent US20090305994A1, “Compounds Modulating Vegf Receptor and Uses Thereof” (priority 2005, published 2009).
# No end group written: not given here.
# Assays:
# HUVEC = experiment: Analysis of caspase 3 activity in HUVEC deprived of FBS; format: cell-based, human; conditions: VEGF 20 ng/ml plus peptide 20 ng/ml, 4 h
# Experimental: HUVE cells (1×10^4/cm2) were incubated in medium without FBS, in the absence or presence of VEGF (20 ng/ml) and QK (5 ng/ml), at 37° C. in a 5% CO2 atmosphere. After 4 h, caspase 3 activity was determined. Results are expressed as mean values of triplicates.
# HUVE cells (1×10^4/cm2) were incubated in medium without FBS, in the absence or presence of VEGF (20 ng/ml) and the indicated peptides (20 ng/ml), at 37° C. in a 5% CO2 atmosphere. After 4 h, caspase 3 activity was determined. Results are expressed as mean values of triplicates.
# (§1) Analysis of caspase 3 activity—Cells (2×104) were lysed in a buffer containing Hepes 50 mM, DTT 1 mM, EDTA 0.1 mM, NP-40 0.1%, CHAPS 0.1% and protein quantitation determined. Protein aliquots (20 μg) were incubated with 20 μM Ac-DEVD-AMC (Pharmingen, San Diego, Calif.) in a buffer containing Hepes 50 mM, DTT 1 mM, EDTA 0.1 mM, NP-40 0.1%, CHAPS 0.1%, at 37° C. for 3 h. Caspase 3 activity was determined in the cytosolic extracts by analysing the release of 7-amino-4-methylcoumarin (AMC) from N-acetyl-DEVD-AMC (Thornberry N A, et al. Nature 1992; 356:768-74); the release of AMC was monitored in a spectrofluorometer with an excitation wavelength of 380 nm and emission wavelength of 440 nm.
# as §1, with “356: 768-74);” for “356:768-74);”
# HUVEC cells = experiment: Binding of fluorescein-conjugated MA peptide to HUVEC cells (flow cytometry); set-up: species or system human; conditions: 500 nM MA peptide, increasing amount of VEGF, 4° C.
# Experimental: HUVE cells (1×10^4/cm2) were incubated with 500 nM MA peptide conjugated with fluorescein and competed with increasing amount of VEGF at 30 min at 4° C. in the dark. Then, cell fluorescence was analyzed by flow cytometry.
# Fluorescence—Cells (3×105) were incubated with saturating amounts of FITC-conjugated and the other indicated reagents, 5 min at 4° C. in the dark. After washing with PBS, the cells were resuspended in PBS and analyzed with a FACScan (Becton Dickinson) flow cytometer.
# Binding of MA peptide to HUVEC cells. To verify that MA peptide bound to HUVEC cells, we incubated the cells with MA or a scrambled peptide conjugated with fluorescein and analyze the binding by FACS.
Molecule,effect on VEGF anti-apoptotic activity (caspase 3) (HUVEC),competition with fluorescein-conjugated MA peptide on HUVEC (HUVEC cells)
KLTWMELYQLKYKGI (KLTWMELYQLKYKGI-NH2) [MK],partially inhibited the effect of the growth factor,
"human recombinant VEGF: Human recombinant VEGF obtained from R&D, used in Example 2 on HUVEC (protein) APMAEGGGQNHHEVVKFMDVYQRSYCHPIETLVDIFQEYPDEIEYIFKPSCVPLMRCGGCCNDEGLECVPTEESNITMQIMRIKPHQGQHIGEMSFLQHNKCECRPKKDRARQENPCGPCSERRKHLFVQDPQTCKCSCKNTDSRCKARQLELNERTCRCDKPRR",,appeared to compete with MA peptide
